Test systems include HOP-62 NSCLC; SK-OV-3 ovarian; CCRF-CEM leukemia; MCF7 breast; SK-MEL-28 melanoma; SK-MEL-2 melanoma; LOX IMVI melanoma; NCI-H226 lung; RPMI-8226 leukemia; SNB-75 CNS; PC-3 prostate; HL-60(TB) leukemia; ACHN renal; 786-0 renal; TK-10 renal; COLO 205 colon; SF-268 CNS; SF-539 CNS; EKVX NSCLC; MDA-N.
Holding throughout (assay): NCI tumour cell line growth inhibition, 48 h

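Values below derive from 48-hour exposures of cells grown in 96-well plates, with endpoints linearly interpolated between the two concentrations bracketing the appropriate inhibition level. TGI: total growth inhibition.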 A value given as a limit tells only on which side of the number the result lay.

With `OC(Cc1cc(CC(O)(C(F)(F)F)C(F)(F)F)nc(CC(O)(C(F)(F)F)C(F)(F)F)c1)(C(F)(F)F)C(F)(F)F`, the TGI was 3.63 µM with HOP-62 NSCLC; above 10 µM with SK-OV-3 ovarian; above 10 µM in the assay with CCRF-CEM leukemia; 9.06 µM in the assay on MCF7 breast; 5.68 µM with SK-MEL-28 melanoma; 4.31 µM with SK-MEL-2 melanoma. In addition, the TGI with LOX IMVI melanoma was 1.34 µM; in the assay with NCI-H226 lung, 7.58 µM; in the assay on RPMI-8226 leukemia it was above 10 µM; in the assay with SNB-75 CNS, 7.81 µM; in the assay with PC-3 prostate, 0.776 µM; in the assay with HL-60(TB) leukemia it was above 10 µM. Moreover, the TGI with ACHN renal was above 10 µM; in the assay on 786-0 renal it was 6.34 µM; in the assay with TK-10 renal, above 10 µM; with COLO 205 colon, 2.14 µM; in the assay on SF-268 CNS, 4.87 µM; in the assay with SF-539 CNS it was 3.44 µM. For the same compound, the TGI in the assay with EKVX NSCLC worked out at 9.32 µM; with MDA-N, 4.09 µM.
Regarding `Cc1cc(=O)oc2c(C)c3oc(CBr)cc3cc12`, the TGI in the assay with HOP-62 NSCLC was 33.6 µM; in the assay with SK-OV-3 ovarian, 75.4 µM; with CCRF-CEM leukemia it was 54.2 µM; in the assay on MCF7 breast, above 100 µM; in the assay on SK-MEL-28 melanoma, 43.6 µM; with SK-MEL-2 melanoma, 54 µM. In addition, the TGI in the assay with LOX IMVI melanoma was 31.1 µM; in the assay with NCI-H226 lung, 34 µM; in the assay on RPMI-8226 leukemia, 42.6 µM; in the assay on SNB-75 CNS, 47.4 µM; with PC-3 prostate, 35 µM; in the assay on HL-60(TB) leukemia, above 100 µM. Moreover, the TGI in the assay on ACHN renal is 29.8 µM; in the assay with 786-0 renal it was 32 µM; with TK-10 renal, 89.6 µM; in the assay on COLO 205 colon, 34.2 µM; in the assay on SF-268 CNS, 51.5 µM; in the assay with SF-539 CNS it was 50.7 µM. The TGI in the assay on EKVX NSCLC was above 100 µM; in the assay with MDA-N, 40.9 µM.
For `COc1ccc(C=O)cc1OS(=O)(=O)C(F)(F)C(F)(F)C(F)(F)C(F)(F)F`, the TGI is above 79.8 µM in the assay on HOP-62 NSCLC; above 90.2 µM in the assay with SK-OV-3 ovarian; 63.1 µM with CCRF-CEM leukemia; above 100 µM in the assay with MCF7 breast; 97.5 µM with SK-MEL-28 melanoma; 43.9 µM in the assay with SK-MEL-2 melanoma. Also, the TGI in the assay with LOX IMVI melanoma is 41.9 µM; in the assay on NCI-H226 lung, above 100 µM; in the assay with RPMI-8226 leukemia, 54.3 µM; with SNB-75 CNS it was above 90.4 µM; in the assay with PC-3 prostate, above 100 µM; in the assay on HL-60(TB) leukemia, 21.8 µM. The TGI with ACHN renal is above 100 µM; in the assay with 786-0 renal, above 84.1 µM; in the assay with TK-10 renal, above 82.9 µM; in the assay on COLO 205 colon it was 62.4 µM; with SF-268 CNS it was above 100 µM; in the assay with SF-539 CNS, 41 µM. Moreover, the figures for the TGI in the assay with EKVX NSCLC and in the assay with MDA-N were above 82.6 µM and 44.7 µM, respectively.
As to `CCN(CC)CCSc1c(C(C)=O)c(=O)n(-c2ccccc2)c(=S)n1-c1ccccc1`, the TGI was 45.3 µM with HOP-62 NSCLC; above 100 µM with SK-OV-3 ovarian; above 100 µM in the assay on CCRF-CEM leukemia; 8.45 µM in the assay on MCF7 breast; 33.3 µM in the assay with SK-MEL-28 melanoma; 31.6 µM with SK-MEL-2 melanoma. Also, the TGI was 9.04 µM in the assay on LOX IMVI melanoma; above 60.3 µM with NCI-H226 lung; 8.52 µM in the assay on RPMI-8226 leukemia; above 85.1 µM in the assay on SNB-75 CNS; 12 µM with PC-3 prostate; 8.71 µM in the assay on HL-60(TB) leukemia. Besides, the TGI in the assay on ACHN renal is 10.1 µM; in the assay with 786-0 renal it was 3.38 µM; in the assay with TK-10 renal it was 17.2 µM; in the assay with COLO 205 colon, 3.92 µM; in the assay with SF-268 CNS, 35.8 µM; in the assay on SF-539 CNS it was 6.01 µM. Further, the TGI with EKVX NSCLC worked out at 32.7 µM; with MDA-N it was 20.9 µM.

Values taken from PubChem BioAssay (NCI).
